Experimental data: ChEMBL document CHEMBL1201862, “PubChem BioAssay data set” (2004)
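Cells were grown in 96-well plates and exposed to each compound for 48 hours at five concentrations; endpoints were interpolated linearly between bracketing concentrations, or set to the highest concentration if not reached. At the GI50, growth is halved.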 The source made the active and inactive calls. Cut-off read from the data, not from the text of the source: active = GI50 up to about 1.1 µM and inactive = higher.

What was measured:
Test in all cases: NCI anticancer screen, dose series, 48 h
M14 = system: M14
EKVX = system: EKVX
HCC 2998 = system: HCC 2998
HCT-116 = system: HCT-116
U-251 = system: U-251
OVCAR-3 = system: OVCAR-3
DU-145 = system: DU-145
NCI-H23 = system: NCI-H23
SK-MEL-28 = system: SK-MEL-28
786-0 = system: 786-0
HOP-18 = system: HOP-18
TK-10 = system: TK-10
KM-20L2 = system: KM-20L2
DMS-114 = system: DMS-114
OVCAR-8 = system: OVCAR-8
RXF 393 = system: RXF 393
SN12C = system: SN12C
DLD-1 = system: DLD-1
SNB-19 = system: SNB-19
ACHN = system: ACHN
MOLT-4 = system: MOLT-4
PC-3 = system: PC-3
SF-539 = system: SF-539
MCF7 = system: MCF7
A549 = system: A549
IGROV-1 = system: IGROV-1
NCI-H522 = system: NCI-H522
A498 = system: A498
SK-MEL-5 = system: SK-MEL-5
SF-268 = system: SF-268
SW-620 = system: SW-620
BT-549 = system: BT-549
SR = system: SR
RPMI-8226 = system: RPMI-8226
MDA-N = system: MDA-N
DMS-273 = system: DMS-273
KM12 = system: KM12
HOP-92 = system: HOP-92
CAKI-1 = system: CAKI-1
NCI-H460 = system: NCI-H460
Malme-3M = system: Malme-3M
Hs-578T = system: Hs-578T
M19-MEL = system: M19-MEL
NCI-H226 = system: NCI-H226
K562 = system: K562
MDA-MB-435 = system: MDA-MB-435
LOX IMVI = system: LOX IMVI
HT-29 = system: HT-29
UO-31 = system: UO-31
SF-295 = system: SF-295
MDA-MB-231 = system: MDA-MB-231
UACC-257 = system: UACC-257
OVCAR-4 = system: OVCAR-4
OVCAR-5 = system: OVCAR-5
NCI/ADR-RES = system: NCI/ADR-RES
SNB-78 = system: SNB-78
HOP-62 = system: HOP-62
COLO 205 = system: COLO 205
LXFL 529 = system: LXFL 529
CCRF-CEM = system: CCRF-CEM
HL-60 = system: HL-60
HCT-15 = system: HCT-15
UACC-62 = system: UACC-62
SK-MEL-2 = system: SK-MEL-2
SK-OV-3 = system: SK-OV-3
SNB-75 = system: SNB-75
T47D = system: T47D

O=C1OC2C(O)COC2(O)C1(O)C(C[N+](=O)[O-])c1ccc(Cl)cc1 (stereo not drawn)
GI50 (M14): 2.58 µM (inactive) | GI50 (EKVX): 23.6 µM (inactive) | GI50 (HCC 2998): 6.78 µM (inactive) | GI50 (HCT-116): 1.79 µM (inactive) | GI50 (U-251): 9.29 µM (inactive) | GI50 (OVCAR-3): 7.19 µM (inactive) | GI50 (DU-145): 18.2 µM (inactive) | GI50 (NCI-H23): 6.95 µM (inactive) | GI50 (SK-MEL-28): 3.52 µM (inactive) | GI50 (786-0): 1.82 µM (inactive) | GI50 (HOP-18): 9.02 µM (inactive) | GI50 (TK-10): 12.5 µM (inactive) | GI50 (KM-20L2): 2.51 µM (inactive) | GI50 (DMS-114): 2.76 µM (inactive) | GI50 (OVCAR-8): 10.1 µM (inactive) | GI50 (RXF 393): 3.29 µM (inactive) | GI50 (SN12C): 13.7 µM (inactive) | GI50 (DLD-1): 1.81 µM (inactive) | GI50 (SNB-19): 15.2 µM (inactive) | GI50 (ACHN): 12.4 µM (inactive) | GI50 (MOLT-4): 2.6 µM (inactive) | GI50 (PC-3): 17 µM (inactive) | GI50 (SF-539): 3.97 µM (inactive) | GI50 (MCF7): 1.98 µM (inactive) | GI50 (A549): 16.5 µM (inactive) | GI50 (IGROV-1): 9.38 µM (inactive) | GI50 (NCI-H522): 9.27 µM (inactive) | GI50 (A498): 4.8 µM (inactive) | GI50 (SK-MEL-5): 8.17 µM (inactive) | GI50 (SF-268): 9.79 µM (inactive) | GI50 (SW-620): 2.71 µM (inactive) | GI50 (BT-549): 6.75 µM (inactive) | GI50 (SR): 4.26 µM (inactive) | GI50 (RPMI-8226): 0.959 µM (active) | GI50 (MDA-N): 2.76 µM (inactive) | GI50 (DMS-273): 3.3 µM (inactive) | GI50 (KM12): 7.36 µM (inactive) | GI50 (HOP-92): 28.7 µM (inactive) | GI50 (CAKI-1): 15.5 µM (inactive) | GI50 (NCI-H460): 13.7 µM (inactive) | GI50 (Malme-3M): 16.3 µM (inactive) | GI50 (Hs-578T): 13.4 µM (inactive) | GI50 (M19-MEL): 2.5 µM (inactive) | GI50 (NCI-H226): 11.6 µM (inactive) | GI50 (K562): 2.96 µM (inactive) | GI50 (MDA-MB-435): 1.97 µM (inactive) | GI50 (LOX IMVI): 2.69 µM (inactive) | GI50 (HT-29): 1.99 µM (inactive) | GI50 (UO-31): 8.79 µM (inactive) | GI50 (SF-295): 12.1 µM (inactive) | GI50 (MDA-MB-231): 30.2 µM (inactive) | GI50 (UACC-257): 6.68 µM (inactive) | GI50 (OVCAR-4): 8.45 µM (inactive) | GI50 (OVCAR-5): 16.4 µM (inactive) | GI50 (NCI/ADR-RES): 21.9 µM (inactive) | GI50 (SNB-78): 13.8 µM (inactive) | GI50 (HOP-62): 20.6 µM (inactive) | GI50 (COLO 205): 3.84 µM (inactive) | GI50 (LXFL 529): 1.95 µM (inactive) | GI50 (CCRF-CEM): 3.45 µM (inactive) | GI50 (HL-60): 1.76 µM (inactive) | GI50 (HCT-15): 6.84 µM | GI50 (UACC-62): 10 µM (inactive) | GI50 (SK-MEL-2): 15.7 µM (inactive) | GI50 (SK-OV-3): 17.1 µM (inactive) | GI50 (SNB-75): 9.35 µM (inactive) | GI50 (T47D): 13.8 µM (inactive)

CN(C)c1nc(N(C)C)nc(N(C)CN(C)c2nc(N(C)C)nc(N(C)C)n2)n1
GI50 (M14): > 100 µM (inactive) | GI50 (EKVX): > 100 µM (inactive) | GI50 (HCC 2998): > 100 µM (inactive) | GI50 (HCT-116): > 100 µM (inactive) | GI50 (U-251): > 100 µM (inactive) | GI50 (OVCAR-3): > 100 µM (inactive) | GI50 (NCI-H23): > 100 µM (inactive) | GI50 (SK-MEL-28): > 100 µM (inactive) | GI50 (786-0): 14.9 µM (inactive) | GI50 (HOP-18): > 100 µM (inactive) | GI50 (TK-10): > 100 µM (inactive) | GI50 (KM-20L2): > 100 µM (inactive) | GI50 (DMS-114): > 100 µM (inactive) | GI50 (OVCAR-8): > 100 µM (inactive) | GI50 (RXF 393): > 100 µM (inactive) | GI50 (SN12C): > 100 µM (inactive) | GI50 (DLD-1): > 100 µM (inactive) | GI50 (SNB-19): > 100 µM (inactive) | GI50 (ACHN): > 100 µM (inactive) | GI50 (MOLT-4): > 100 µM (inactive) | GI50 (SF-539): > 100 µM (inactive) | GI50 (A549): > 100 µM (inactive) | GI50 (IGROV-1): > 100 µM (inactive) | GI50 (NCI-H522): 76.9 µM (inactive) | GI50 (A498): > 100 µM (inactive) | GI50 (SK-MEL-5): > 100 µM (inactive) | GI50 (SF-268): > 100 µM (inactive) | GI50 (SW-620): > 100 µM (inactive) | GI50 (SR): > 100 µM (inactive) | GI50 (RPMI-8226): > 100 µM (inactive) | GI50 (DMS-273): > 100 µM (inactive) | GI50 (KM12): > 100 µM (inactive) | GI50 (HOP-92): > 100 µM (inactive) | GI50 (CAKI-1): > 100 µM (inactive) | GI50 (NCI-H460): > 100 µM (inactive) | GI50 (Malme-3M): > 100 µM (inactive) | GI50 (M19-MEL): > 100 µM (inactive) | GI50 (K562): > 100 µM (inactive) | GI50 (LOX IMVI): > 100 µM (inactive) | GI50 (HT-29): > 100 µM (inactive) | GI50 (UO-31): > 100 µM (inactive) | GI50 (SF-295): > 100 µM (inactive) | GI50 (UACC-257): > 100 µM (inactive) | GI50 (OVCAR-4): > 100 µM (inactive) | GI50 (OVCAR-5): > 100 µM (inactive) | GI50 (SNB-78): > 100 µM (inactive) | GI50 (HOP-62): > 100 µM (inactive) | GI50 (COLO 205): > 100 µM (inactive) | GI50 (LXFL 529): 77.6 µM (inactive) | GI50 (CCRF-CEM): > 100 µM (inactive) | GI50 (HL-60): > 100 µM (inactive) | GI50 (HCT-15): > 100 µM | GI50 (UACC-62): > 100 µM (inactive) | GI50 (SK-MEL-2): > 100 µM (inactive) | GI50 (SK-OV-3): > 100 µM (inactive) | GI50 (SNB-75): > 100 µM (inactive)
